Experimental data taken from PubChem BioAssay (NCI).
Several values for one entry are separate records, joined by “and”; a condition that tells them apart may be missing. Identical values can stand only once.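 Following 48 hours of exposure in 96-well plates, responses at five concentrations were used to interpolate endpoints linearly. Here, GI50 denotes the concentration required for 50% inhibition of growth. At the TGI there is no net growth.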

Tests used:
Assay in all cases: NCI tumour cell line growth inhibition, 48 h
MDA-N = system: MDA-N
DLD-1 colon = system: DLD-1 colon
RXF-631 renal = system: RXF-631 renal
SNB-78 CNS = system: SNB-78 CNS
DMS 114 small cell lung = system: DMS 114 small cell lung
LXFL 529 NSCLC = system: LXFL 529 NSCLC
DMS 273 small cell lung = system: DMS 273 small cell lung
HOP-18 NSCLC = system: HOP-18 NSCLC
XF 498 CNS = system: XF 498 CNS
SN12K1 renal = system: SN12K1 renal
P388 leukemia = system: P388 leukemia
P388/ADR leukemia = system: P388/ADR leukemia

Row | SMILES | TGI (MDA-N) | TGI (DLD-1 colon) | TGI (RXF-631 renal) | TGI (SNB-78 CNS) | TGI (DMS 114 small cell lung) | TGI (LXFL 529 NSCLC) | TGI (DMS 273 small cell lung) | TGI (HOP-18 NSCLC) | TGI (XF 498 CNS) | also measured
1 | NC(Cc1cc(Br)c(O)c(Br)c1)C(=O)O (stereo not drawn) | > 100 µM | – | – | – | – | – | – | – | – | –
2 | CCC[CH2][Sn]([CH2]CCC)([O]C(=O)c1cc(OC)c(OC)c(OC)c1)[O]C(=O)c1cc(OC)c(OC)c(OC)c1 | – | 2.46 µM | 1.83 µM | 1.58 µM | 1.54 µM | 0.536 µM | 2.95 µM | – | – | GI50 (DLD-1 colon): 1.21 µM; GI50 (RXF-631 renal): 0.53 µM; GI50 (SNB-78 CNS): 0.453 µM; GI50 (DMS 114 small cell lung): 0.404 µM; GI50 (LXFL 529 NSCLC): 0.215 µM; GI50 (DMS 273 small cell lung): 1.35 µM
3 | O=[n+]1cnn([O-])c2ccccc21 | 44.2 µM | – | – | – | – | – | – | – | – | –
4 | CCCCCCCCC(=O)CCCCCCCCC(=O)O | – | 40.1 µM | 44.1 µM | > 100 µM | 64.4 µM | 67.5 µM | 75.7 µM | 49.4 µM | > 100 µM | –
5 | CC(=O)c1cc2c3c(c1)c1cc4c(cc1c(=O)n3CC2)OCO4 | – | > 100 µM | > 100 µM | > 100 µM | > 100 µM | > 100 µM | > 100 µM | 76.6 µM | > 100 µM | –
6 | Cc1c(NC(=O)CCCl)c(=O)oc2c(C)c3occc(=O)c3cc12 | > 100 µM | – | – | – | – | – | – | – | – | –
7 | COC(=O)C(=C\Sc1ccccc1)/C=C/C(=O)OC(C)(C)C | – | 7.59 µM | – | 31.9 µM | 25.8 µM | 13.5 µM | 24.5 µM | 30 µM | 28.3 µM | –
8 | O=S1Cc2ccccc2CS1 (stereo not drawn) | – | 33.5 µM | > 100 µM | 36.7 µM | – | 28.7 µM | 29.8 µM | > 100 µM | 32.6 µM | –
9 | O=c1oc2c(Br)c(O)c(Br)cc2c2ccccc12 | > 100 µM | – | – | – | – | – | – | – | – | –
10 | Cc1cc(NC(=O)NC(=O)c2ccccc2[N+](=O)[O-])ccc1Oc1ncc(Cl)cn1 | 29.5 µM | 43.7 µM | – | 62.6 µM | > 100 µM | 24.3 µM | 0.365 µM | 91.1 µM | 17.9 µM | –
11 | CC(/C=C/C=C/C=C/C=C/C=C/C(O)=C1/C(=O)C(CCC(=O)O)N(C)C1=O)=C\C(C)C(OC1CC(O)C(O)C(C)O1)C(C)C (stereo not drawn) | 12.7 µM | – | – | – | – | – | – | – | – | –
12 | COC(=O)C1C2CC3C(OC(=O)C31)C2I (stereo not drawn) | – | – | – | > 100 µM | > 100 µM | – | > 100 µM | – | – | –
13 | Oc1ccc(Cl)cc1Cc1cc(Cl)cc(Cc2cc(Cl)ccc2O)c1O | 8.31 µM | – | – | – | – | – | – | – | – | –
14 | Nc1ccn(C2OC(CO[P+](=O)OC3C(CO[P+](=O)OC4C(CO[P+](=O)OC5C(CO[P+](=O)OC6C(CO[P+](=O)OC7C(CO[P+](=O)OC8C(CO[P+](=O)OC9C(CO[P+](=O)OC%10C(CO[P+](=O)OC%11C(CO)OC(n%12ccc(N)nc%12=O)C%11(F)F)OC(n%11ccc(N)nc%11=O)C%10(F)F)OC(n%10ccc(N)nc%10=O)C9(F)F)OC(n9ccc(N)nc9=O)C8(F)F)OC(n8ccc(N)nc8=O)C7(F)F)OC(n7ccc(N)nc7=O)C6(F)F)OC(n6ccc(N)nc6=O)C5(F)F)OC(n5ccc(N)nc5=O)C4(F)F)OC(n4ccc(N)nc4=O)C3(F)F)C(O)C2(F)F)c(=O)n1 (stereo not drawn) | > 100 µM | – | – | – | – | – | – | – | – | –
15 | S=C1CNC(=S)CN1 | – | > 100 µM | > 100 µM | > 100 µM | > 100 µM | > 100 µM | > 100 µM | > 100 µM | – | –
16 | c1ccc2c(c1)nnn1c3cnccc3nc21 | – | > 100 µM | – | > 100 µM | 69.5 µM | > 100 µM | 36 µM | > 100 µM | – | –
17 | Cn1c(O)c(C=N)c(=O)n(C)c1=O | – | > 100 µM | – | > 100 µM | > 100 µM | – | – | > 100 µM | > 100 µM | –
18 | CCOC(=O)CC(=O)N(c1ccc(OC)cc1)C(C(=O)OC)c1ccccc1 (stereo not drawn) | > 100 µM | – | – | – | – | – | – | – | – | –
19 | CCC1(O)C(=O)OCc2c1cc1n(c2=O)Cc2c-1nc1ccccc1c2OC (stereo not drawn) | – | > 100 µM | – | > 100 µM | 1.26 µM | > 69.6 µM | 0.108 µM | > 77.9 µM | – | –
20 | CC1=C(C)C(=O)c2c(cc3c4ccccc4ccn23)C1=O | – | > 100 µM | – | – | > 100 µM | – | > 100 µM | > 100 µM | > 100 µM | –
21 | CC12Oc3ccc4ccccc4c3C1c1c(ccc3ccccc13)O2 (stereo not drawn) | – | > 100 µM | – | > 100 µM | > 100 µM | > 100 µM | > 100 µM | – | > 100 µM | –
22 | CCOC(=O)/C(=C/c1cc(OC)ccc1OC)CC(=O)O | – | > 31.6 µM | > 100 µM | > 100 µM | > 100 µM | > 100 µM | > 100 µM | > 100 µM | > 56.7 µM | –
23 | COc1ccccc1/C=C1\CCC(CN(C)C)C1=O (stereo not drawn) | 26 µM | 4.98 µM | – | 29.2 µM | 7.58 µM | – | 20.5 µM | > 53.1 µM | 32.6 µM | TGI (SN12K1 renal): 4.4 µM; TGI (P388 leukemia): 2.83 µM; TGI (P388/ADR leukemia): 2.75 µM
24 | OCC1OC(n2ccc3cnccc32)CC1O (stereo not drawn) | – | > 100 µM | – | > 100 µM | > 100 µM | > 100 µM | > 100 µM | > 100 µM | – | –
25 | CC1C(=O)CCC1C(Sc1ccccc1)(Sc1ccccc1)Sc1ccccc1 (stereo not drawn) | – | > 100 µM | > 100 µM | > 100 µM | 49.6 µM | 77.9 µM | > 100 µM | – | 80.9 µM | –
26 | COC1OC(COCc2ccc(Cl)cc2)C(OCc2ccc(Cl)cc2)C1O (stereo not drawn) | – | 34.1 µM | 34.6 µM | – | 32.8 µM | 43.3 µM | 31.7 µM | 25.7 µM | 16 µM | –
27 | O=C1C(CN(Cc2ccccc2)Cc2ccccc2)CCCC1CN(Cc1ccccc1)Cc1ccccc1 (stereo not drawn) | > 100 µM | 10.4 µM and > 100 µM | > 100 µM | > 100 µM | 10.3 µM and > 100 µM | – | 33.3 µM and > 100 µM | 11.8 µM and > 100 µM | 28.4 µM | GI50 (SNB-78 CNS): 28.1 µM and > 100 µM; GI50 (HOP-18 NSCLC): 5.67 µM and 48.5 µM; GI50 (DMS 273 small cell lung): 17.1 µM and > 100 µM
28 | CCOC(=O)NC(=O)c1cn(CCCCCCCCCCC(=O)N2CCN(CCn3cc(C(=O)NC(=O)OCC)c(=O)[nH]c3=O)CC2)c(=O)[nH]c1=O | – | > 100 µM | > 100 µM | > 100 µM | > 100 µM | > 100 µM | > 100 µM | > 100 µM | > 100 µM | –
